{"source": "patent US20130149287A1", "about": "“Corticogenesis of Human Pluripotent Cells” (Cambridge Enterprise Limited, priority 2010, published 2013)", "type_in_all_cases": "cell-based, human", "key": {"[1]": {"tested_on": "voltage-gated potassium channels", "assay": "Whole-cell patch-clamp recording of voltage-gated potassium currents in PSC-derived cortical neurons", "details": "step depolarizations from holding potential -80 mV to +40"}, "AMPA receptor": {"tested_on": "AMPA receptor", "assay": "Whole cell patch-clamp recording of miniature excitatory post-synaptic currents (mEPSCs) in hESC/hiPSC-derived cortical neurons", "details": "hESC- and hiPSC-derived cortical neurons, cultures between days 45 and 100", "description": "[…] Borosilicate glass electrodes (resistance 6-10 MΩ) were filled with an intracellular solution containing (in mM): 135 K-Gluconate, 7 NaCl, 10 Hepes, 2 Na2ATP, 0.3 Na2GTP, 2 MgCl2. Cells were viewed using a BW50WI microscope (Olympus) with infrared DIC optics. Recordings were made with a Multiclamp 700 A amplifier (Molecular Devices). Signals were filtered at 4 kHz, sampled at 20 kHz with 16-bit resolution, and analysed using Matlab (MathWorks)."}, "gamma-secretase complex": {"tested_on": "gamma-secretase complex", "assay": "Sandwich ELISA of secreted Aβ40 and Aβ42 in DS cortical neuron culture supernatant under gamma-secretase inhibition", "details": "DS cortical neurons", "procedure": "Quantification of secreted Aβ40 and Aβ42 was carried out by sandwich ELISA (Invitrogen) of 50 μl of cell culture supernatant from cultures of DS, iPS control and H9 hES cortical neurons. For quantification of water-soluble and insoluble Aβ peptides, water- and formic acid-soluble protein fractions from whole cell extracts of cortical cultures were prepared and levels of each peptide measured by ELISA (Invitrogen). Inhibition of gamma-secretase was carried out in DS cortical cultures by addition of DAPT (Calbiochem) every 48 hours from day 50 of differentiation onwards."}, "[2]": {"tested_on": "voltage-gated sodium channels"}, "[3]": {"tested_on": "hESC and hiPSC cell lines", "assay": "Efficiency of cortical induction by percentage of Pax6-expressing cells, with or without retinoids", "details": "retinol acetate and all-trans retinol included together, with dual SMAD inhibition; two hESC and four iPSC lines", "procedure": "hESCs or iPSCs were isolated from MEFs following dissociation to single cells with Accutase (Innovative Cell Technologies) by a 1 hr pre-plate on gelatin-coated dishes in hESC medium supplemented with 10 ng/ml FGF2 and 10 μM ROCK inhibitor (Calbiochem). The non-adherent pluripotent stem cells were harvested and plated on Matrigel (BD) coated 12-well plates in MEF-conditioned hESC medium with 10 ng/ml FGF2. Once the cell culture reached 95% confluence, neural induction was initiated by changing the culture medium to a culture medium that supports neural induction, neurogenesis and neuronal differentiation (referred to as 3N medium), a 1:1 mixture of N2- and B27-containing media. N2 medium: DMEM/F12, N2 (GIBCO), 5 μg/ml Insulin, 1 mM L-Glutamine, 100 μm non-essential amino acids, 100 μM 2-mercaptoethanol, 50 U/ml Penicillin and […] Streptomycin; B27 medium: Neurobasal (Invitrogen), B27 with vitamin A (GIBCO), 200 mM Glutamine, 50 U/ml Penicillin and […] Streptomycin. […] Cells were maintained in this medium for 8-11 days, during which time the efficiency of neural induction was monitored by the appearance of cells with characteristic neuroepithelial cell morphology. […] For quantifying numbers of cells expressing specific cortical neuronal markers, cell cultures were dissociated into single cells with Accutase and resuspended at a density of 100,000 cells/ml. […]"}, "cortical rosettes": {"tested_on": "cortical rosettes", "assay": "Regional identity of early-stage cortical rosettes after hedgehog signalling agonist treatment"}}, "note": "“Also recorded” adds a separate entry of the source."}
{"compound": "Nc1ccncc1", "note": "[4-AP, 4-aminopyridine]", "values": [{"measurement": "voltage-gated outward potassium current", "setting": "[1]", "value": "blocks a fast-activating transient fraction of outward K current; also recorded: a transient component of which was blocked"}]}
{"compound": "N#Cc1cc2[nH]c(=O)c(=O)[nH]c2cc1[N+](=O)[O-]", "note": "[CNQX]", "values": [{"measurement": "appearance of mEPSCs", "setting": "AMPA receptor", "value": "blocked the appearance of mEPSCs"}]}
{"compound": "C[C@H](NC(=O)Cc1cc(F)cc(F)c1)C(=O)N[C@H](C(=O)OC(C)(C)C)c1ccccc1", "note": "[DAPT]", "values": [{"measurement": "production/secretion of both Aβ peptides", "setting": "gamma-secretase complex; longer term 21 day gamma-secretase inhibition", "value": "undetectable levels"}, {"measurement": "production of Aβ40 and Aβ42 (secreted)", "setting": "gamma-secretase complex; short-term 4 day gamma-secretase inhibition", "value": "reduces production of both Aβ40 and Aβ42"}]}
{"compound": "NC1=N[C@H](O)[C@H]2[C@H]3O[C@]4(O)O[C@@H]([C@@H](O)[C@@]2(N1)[C@@H]4O)[C@]3(O)CO", "note": "[TTX, tetrodotoxin]", "values": [{"measurement": "fast-activating and inactivating inward voltage-gated sodium currents", "setting": "[2]", "value": "completely blocked"}]}
{"compound": "CC1=C(/C=C/C(C)=C/C=C/C(C)=C/CO)C(C)(C)CCC1", "note": "[all-trans retinol]", "values": [{"measurement": "cortical neural induction, Pax6 expression", "setting": "[3]", "value": "robust, efficient differentiation of all lines to cortical neural stem/progenitor cells, with almost all cells expressing Pax6"}]}
{"compound": "c1ccc2c(Oc3nc(Nc4ccc(N5CCOCC5)cc4)c4ncn(C5CCCCC5)c4n3)cccc2c1", "note": "[purapomorphine]", "values": [{"measurement": "effect on regional identity of cortical rosettes", "setting": "cortical rosettes", "value": "ventralises the rosettes, resulting in the genesis of GAD67+ GABAergic interneurons"}]}
{"compound": "retinol acetate", "values": [{"measurement": "cortical neural induction, Pax6 expression", "setting": "[3]", "value": "robust, efficient differentiation of all lines to cortical neural stem/progenitor cells, with almost all cells expressing Pax6"}]}
